This is an account of results in US20130115522A1, “Manufacture of LiPO2F2” (SOLVAY SA, priority 2010, published 2013).

The series can be described thus: Solubility of LiPO2F2 (and by-product salts) in organic solvents. The class given is physicochemical. From the text: If it is desired to isolate LiPO2F2 and Li2PO3F from any LiF, polar aprotic solvents can be applied. For example, dialkyl carbonates are suitable for this purpose. Other solvents are acetone, isopropanol, tetrahydrofurane, ethyl acetate, acetonitrile, and diethyl carbonate. If it is desired to isolate selectively LiPO2F2, propylene carbonate was identified as very suitable solvent because LiPO2F2 is soluble therein, and Li2PO3F and also LiF are not. Other very suitable solvents are diethyl carbonate, a mixture of dimethyl carbonate and propylene carbonate, acetonitrile, dimethoxyethane and acetone. The solubility of LiPO2F2 in these solvents at ambient temperature is compiled in the following table 1.
Under inert gas (nitrogen), pure LiPO2F2 was dissolved in propylene carbonate at about 20° C. such that a solution is obtained comprising about 2.75% by weight of LiPO2F2.
Under inert gas (nitrogen), pure LiPO2F2 was dissolved in the respective solvent or solvent mixture at about 20° C. such that a solution containing the amounts of dissolved LiPO2F2 given in the following table 3 were achieved. The data for solution No. 1 was taken from example 4, the data for solutions No. 2 to 6 of table 3 correspond to those of table 1.

Structures are written as SMILES.

`[F-].[Li+]` [LiF]: the “Solubility in acetone (in words)” value (acetone) was “very low solubility”. The “Solubility in dimethoxyethane (in words)” value (dimethoxyethane) is “at most in neglectable amounts”. Besides, where the note is “dimethyl carbonate, propylene carbonate and mixtures thereof”, the “Solubility in dimethyl carbonate, propylene carbonate and mixtures thereof (in words)” value was “at most in neglectable amounts”. Besides, under “propylene carbonate”, the “Solubility in propylene carbonate (in words)” value is “are not”.
